Data: the supplement of paper PMC4862054
Where “and” joins values, the source holds several entries; their conditions need not be identical. Identical values can stand only once.

Legend:
Details in all cases: incubation time: 72 h
MCF-10A = experiment: drug sensitivity score (DSS), CellTox Green (DSS (AUC-based score)); higher = stronger drug effect (viability inhibition or cytotoxicity); extreme values may be limits of the assay
In short: (§1)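 A drug sensitivity score was derived from the area under each fitted dose-response curve. Breast cancer cells (20 µl suspension) were seeded onto compound in 384-well plates, using 5 concentrations 10-fold apart over a compound-specific 10,000-fold range, and incubated 72 h. Readouts were CellTox Green fluorescence and then CellTiter-Glo luminescence, with every plate normalised to 0.1 % DMSO and a positive kill control.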

HCC1937 [1] = experiment: as above
In short: as §1

CAL-85-1 [2] = experiment: as above
In short: as §1

MFM-223 = experiment: as above
In short: as §1

DU-4475 = experiment: as above
In short: as §1

CAL-120 [3] = experiment: as above
In short: as §1

CAL-51 = experiment: as above
In short: as §1

MDA-MB-231 = experiment: as above
In short: as §1

MDA-MB-453 [4] = experiment: as above
In short: as §1

BT-474 [5] = experiment: as above
In short: as §1

MDA-MB-436 [6] = experiment: as above
In short: as §1

HCC1599 = experiment: as above
In short: as §1

HCC1143 [7] = experiment: as above
In short: as §1

BT-549 [8] = experiment: as above
In short: as §1

HCC1937 [9] = experiment: normalised viability (% of control), CellTiter-Blue; higher = more viable cells (about 100 = DMSO control)
In short: (§2)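 Seeded at 20 µl suspension per well onto compound-loaded 384-well plates, breast cancer cell lines were incubated 72 h. CellTiter-Blue fluorescence at 560/590 nm was then read, with each plate normalised to vehicle (100) and a positive kill control (0). Normalised viability is reported at a single listed concentration of the series.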

CAL-85-1 [10] = experiment: as above
In short: as §2

CAL-120 [11] = experiment: as above
In short: as §2

HDQ-P1 = experiment: as above
In short: as §2

MDA-MB-468 = experiment: as above
In short: as §2

MDA-MB-453 [12] = experiment: as above
In short: as §2

BT-474 [13] = experiment: as above
In short: as §2

MDA-MB-436 [14] = experiment: as above
In short: as §2

HCC1143 [15] = experiment: as above
In short: as §2

BT-549 [16] = experiment: as above
In short: as §2

CAL-148 = experiment: as above
In short: as §2

Cc1c(N)nc([C@H](CC(N)=O)NC[C@H](N)C(N)=O)nc1C(=O)N[C@H](C(=O)N[C@H](C)[C@@H](O)[C@H](C)C(=O)N[C@H](C(=O)NCCc1nc(-c2nc(C(=O)NCCC[S+](C)C)cs2)cs1)[C@@H](C)O)[C@@H](OC1OC(CO)C(O)C(O)C1OC1OC(CO)C(O)C(OC(N)=O)C1O)c1cnc[nH]1 (stereo partly specified) [Bleomycin]
Details | drug sensitivity score
BT-474 [5] | 0
BT-549 [8] | 1.71
CAL-51 | 19.8
CAL-85-1 [2] | 0.93
CAL-120 [3] | 0
DU-4475 | 0
HCC1143 [7] | 0
HCC1599 | 0
HCC1937 [1] | 0
MCF-10A | 0
MDA-MB-231 | 4.48
MDA-MB-436 [6] | 2.42
MDA-MB-453 [4] | 0
MFM-223 | 0

normalised viability [%]
Details | 3 nM | 10 nM | 30 nM | 100 nM | 1000 nM | 10000 nM
BT-474 [13] | – | 102 | – | – | 97.9 | 98
BT-549 [16] | – | 87.5 | – | – | 57.1 | 62.4
CAL-85-1 [10] | 101 | – | 94.9 | 96.6 | – | –
CAL-120 [11] | – | 94.4 | – | – | 78.5 | 67.7
CAL-148 | 88 | – | 82.5 | 87 | – | –
HCC1143 [15] | – | 74.6 | – | – | 64.2 | 49.4
HCC1937 [9] | – | 92.2 | – | – | 54.7 | 28.2
HDQ-P1 | 80.9 | – | 88.5 | 27.8 | – | –
MDA-MB-436 [14] | – | 92.3 | – | – | 79 | 44.7
MDA-MB-453 [12] | 103 | – | 106 | 100 | – | –
MDA-MB-468 | – | 94.6 | – | – | 86.6 | 72.7

CCCCCOC(=O)Nc1nc(=O)n([C@@H]2O[C@H](C)[C@@H](O)[C@H]2O)cc1F [Capecitabine]
Details | drug sensitivity score
BT-474 [5] | 0
BT-549 [8] | 0
CAL-51 | 0
CAL-85-1 [2] | 0
CAL-120 [3] | 0
DU-4475 | 0
HCC1143 [7] | 0
HCC1599 | 0
HCC1937 [1] | 0
MCF-10A | 0
MDA-MB-231 | 0
MDA-MB-436 [6] | 0
MDA-MB-453 [4] | 0
MFM-223 | 3.74

Details | normalised viability
BT-474 [13], 10 nM | 124% and 104%
BT-474 [13], 1000 nM | 120% and 108%
BT-474 [13], 10000 nM | 124% and 105%
BT-549 [16], 10 nM | 91.7% and 86.6%
BT-549 [16], 1000 nM | 96% and 104%
CAL-85-1 [10], 3 nM | 87.5% and 102%
CAL-85-1 [10], 30 nM | 88.5% and 90.9%
CAL-85-1 [10], 100 nM | 91.8% and 103%
CAL-120 [11], 10 nM | 82.6% and 98.9%
CAL-120 [11], 1000 nM | 83.9% and 100%
CAL-120 [11], 10000 nM | 91.1% and 96.5%
CAL-148, 3 nM | 91.9% and 96%
CAL-148, 30 nM | 89.1% and 88.1%
CAL-148, 100 nM | 92.8% and 107%
HCC1143 [15], 10 nM | 77.9% and 97.9%
HCC1143 [15], 1000 nM | 89.9% and 103%
HCC1143 [15], 10000 nM | 84.2% and 91.9%
HCC1937 [9], 10 nM | 80.9% and 86%
HCC1937 [9], 1000 nM | 88% and 75.8%
HCC1937 [9], 10000 nM | 87.6% and 85.8%
HDQ-P1, 3 nM | 94.8% and 95.5%
HDQ-P1, 30 nM | 91.5%
HDQ-P1, 100 nM | 102% and 94.6%
MDA-MB-436 [14], 1000 nM | 72.3% and 89%
MDA-MB-436 [14], 10000 nM | 83.6% and 89%
MDA-MB-453 [12], 3 nM | 110% and 101%
MDA-MB-453 [12], 30 nM | 95.9% and 104%
MDA-MB-453 [12], 100 nM | 97% and 94%
MDA-MB-468, 10 nM | 106% and 131%
MDA-MB-468, 1000 nM | 108% and 104%
MDA-MB-468, 10000 nM | 104%

CC(C)C[C@H](NC(=O)[C@H](CCc1ccccc1)NC(=O)CN1CCOCC1)C(=O)N[C@@H](Cc1ccccc1)C(=O)N[C@@H](CC(C)C)C(=O)[C@@]1(C)CO1 [Carfilzomib]
Details | drug sensitivity score
BT-474 [5] | 8.3
BT-549 [8] | 8.43
CAL-51 | 24.4
CAL-85-1 [2] | 24.8
CAL-120 [3] | 17.2
DU-4475 | 0
HCC1143 [7] | 0
HCC1599 | 0
HCC1937 [1] | 18.4
MCF-10A | 9.99
MDA-MB-231 | 24.1
MDA-MB-436 [6] | 19.2
MDA-MB-453 [4] | 0
MFM-223 | 14.4

normalised viability [%]
Details | 0.3 nM | 1 nM | 3 nM | 10 nM | 100 nM | 1000 nM
BT-474 [13] | – | 107 | – | – | 21.8 | 13.9
BT-549 [16] | – | 90 | – | – | 6.79 | 5.9
CAL-85-1 [10] | 107 | – | 86 | 72.1 | – | –
CAL-120 [11] | – | 100 | – | – | 4.54 | 2.9
CAL-148 | 101 | – | 97.8 | 94.5 | – | –
HCC1143 [15] | – | 91.9 | – | – | 23.9 | 14.9
HCC1937 [9] | – | 74 | – | – | 5.98 | 11
HDQ-P1 | 105 | – | 98.9 | 56.7 | – | –
MDA-MB-436 [14] | – | 96.8 | – | – | 6.97 | 10.9
MDA-MB-453 [12] | 115 | – | 38.5 | 17.7 | – | –
MDA-MB-468 | – | 117 | – | – | 3.17 | 2.35

Nc1nc(Cl)nc2c1ncn2[C@@H]1O[C@H](CO)[C@@H](O)[C@@H]1F [Clofarabine]
Details | drug sensitivity score
BT-474 [5] | 0
BT-549 [8] | 0
CAL-51 | 16.7
CAL-85-1 [2] | 3.72
CAL-120 [3] | 0
DU-4475 | 0
HCC1143 [7] | 0
HCC1599 | 0
HCC1937 [1] | 0
MCF-10A | 0
MDA-MB-231 | 0
MDA-MB-436 [6] | 0
MDA-MB-453 [4] | 0
MFM-223 | 0

normalised viability [%]
Details | 3 nM | 10 nM | 30 nM | 100 nM | 1000 nM | 10000 nM
BT-474 [13] | – | 106 | – | – | 101 | 102
BT-549 [16] | – | 87.5 | – | – | 50.6 | 42.3
CAL-85-1 [10] | 95.8 | – | 90.4 | 82.6 | – | –
CAL-120 [11] | – | 89.1 | – | – | 47.7 | 50.4
CAL-148 | 82.6 | – | 87.8 | 83.3 | – | –
HCC1143 [15] | – | 74.5 | – | – | 52.4 | 45
HCC1937 [9] | – | 92.6 | – | – | 28.9 | 26.9
HDQ-P1 | 105 | – | 106 | 88.9 | – | –
MDA-MB-436 [14] | – | 109 | – | – | 47.6 | 56
MDA-MB-453 [12] | 102 | – | 105 | 97.9 | – | –
MDA-MB-468 | – | 98.5 | – | – | 39.5 | 20.5
